From US9834575B2, “Cancer therapy” (TriAct Therapeutics, Inc., priority 2013, dated 2017) come the findings set out here.

Data set [1] is described as follows: Solubility of NDGA in intestinal fluids. It is filed as physicochemical. Particulars: fassgf or other biorelevant.
The subject of another data set is H1975, A427, A549 cells. The data set can be described thus: Cell survival/proliferation (CyQuant) of NSCLC cell lines in 10% serum from untreated mice spiked with drug. Particulars: 72 h. The format is cell-based, human. How it is done:
The CyQuant™ assay (Invitrogen) may be used to differentiate antioxidant activity from anti-proliferative activity. Briefly, the assay is based on dye fluorescence enhancement upon binding to cellular nucleic acids. Cells are lysed by addition of a buffer containing the CyQUANT™-GR dye; there are no washing steps, growth medium changes or long incubations. The resulting fluorescence is proportional to the number of cells in the sample and is measured directly using the TD-700 fluorometer equipped with a fluorescein filter kit. The CyQUANT™ assay can detect much lower cell numbers than Neutral Red or methylene blue assays. […] Thus, cells can be frozen prior to assaying; time course assays are facile and data obtained from samples taken at widely different time intervals can be directly compared. […] Cell number differences were measured using the CyQuant® assay (Invitrogen). H1975, A427, A549 cells were seeded at 1×10^4 cells/well in a 96 well plate and incubated overnight at 37° C. […] The plates were incubated for 72 h at 37° C. and the relative cell number per well was determined using the CyQuant® reagent. Fluorescence was measured using a Molecular Devices plate reader.

The subject of a further data set is A549 cells. The data set can be described thus: Cell number (CyQuant) after culture in 10% serum from mice orally administered 300 mg/Kg drug, A549. Particulars: A549, 72 h. It is filed as cell-based, human. As to the method: (§1) The plates were incubated for 72 h at 37° C. and the relative cell number per well was determined using the CyQuant® reagent. Fluorescence was measured using a Molecular Devices plate reader. […] Serum from five animals was pooled, mixed with culture medium at a concentration of 10% and cells incubated for 72 hours. Cell number was then determined using the CyQuant® assay. […] Differences in cell number for cells cultured in 10% serum was compared by t-test. P values are: A427, p=0.009; A549, p=0.133; and […], p=0.744.

In the next data set the test system is A427 cells. The data set can be described thus: Cell number (CyQuant) after culture in 10% serum from mice orally administered 300 mg/Kg drug, A427. The format is cell-based, human. As to conditions: A427, 72 h. How it is done: as §1
Data set [2] is described as follows: Metabolite profiling of NDGA in plasma after oral administration in male CD-1 mice (LC-HRAMS, semi-quantitative). The format is in vivo. As to the method: The dosing solution was prepared at a nominal concentration of 20 mg/mL; detailed description is shown in Appendix I. The actual concentration, established using HPLC-MS, was 84.9% of nominal (+/−8.9%) and was within the acceptable range according to the study protocol. Animal dosing and blood collection were performed according to the study protocol; details are shown in Appendix II. […] Plasma samples were prepared from blood according to the study protocol. Aliquots of the stabilized (with ascorbic acid) plasma samples were treated with MeCN (1:3 ratio) containing a mixture of internal standards (metoprolol, propranolol, and warfarin, each at 500 ng/mL) for protein precipitation. After centrifugation, clear supernatants were analyzed directly using LC-High Resolution Accurate Mass Spectrometry (HRAMS) as described below.
The samples were separated using HPLC, and two stationary phases were evaluated: ACE pentaflurophenyl C18 (Phenomenex) and dC18 (Waters). […]
Following the pre-scan, the FT analyzer is set to perform a slow survey scan at high resolution (HRMS). […] The decision event selects the two most intense ions detected in the pre-scan which are on the parent mass list. […]
1) Subtraction of the chromatogram of a control sample (solvent control in blank matrix) from the analyzed sample, leading to creation of a “SUB” file (Appendix II). […]

The nature of data set [3]: Exposure (plasma concentration by LC-MS/MS) of NDGA after oral administration in male CD-1 mice at 100 mg/kg. It is filed as in vivo. As to conditions: for concentration at 0.167 h / concentration at 0.5 h / concentration at 2 h / concentration at 4 h: male, CD-1, mouse, plasma, po, 100 mg/kg, PO 100 mg/kg; for concentration at 0.167 h: time point 0.167 hr; for concentration at 0.5 h: time point 0.50 hr; for concentration at 2 h: time point 2.0 hr; for concentration at 4 h: time point 4.0 hr. How it is done:
Test compound was dosed at 100 mg/kg from 0.5% MC and 0.5% NaCMC in DI water in separate groups. Analytical stock solutions (1 mg/mL of the free drug) were prepared in DMSO. Standards were made from independently prepared stock solutions of the test compound. Standards and QCs were prepared in male CD-1 mouse plasma containing K2EDTA as an anticoagulant with 10% of 0.1M ascorbic acid in water. Standards were prepared at concentrations of 1000, 500, 100, 50, 10, 5, 1, and 0.5 ng/mL by serial dilution. Standards were treated identically to the study samples. Plasma samples were manually extracted using acetonitrile precipitation. All samples were thawed on ice, and kept on ice during preparation. […] [table] • Flow Rate: 300 μL/min • Injection Volume: 10 μL • Run Time: 4.5 min • Temperature: ambient • Autosampler Wash: #1: 1:1:1 (v:v:v) water:acetonitrile:isopropanol with 0.2% formic acid • #2: 50:50 (v:v) methanol:water [table] […] All data are expressed as ng/mL of the free drug. Samples that were below the limit of quantitation were not used in the calculation of averages. Plasma concentrations versus time data are plotted in FIGS. 24 and 25.

The nature of data set [4]: In vitro stability of NDGA in freshly drawn whole blood of CD-1 mice. It is filed as in vitro ADME. As to conditions: CD-1 mouse whole blood. As to the method:
The aliquots were treated with MeCN (1:3 ratio) containing a mixture of internal standards (metoprolol, propranolol, and warfarin, each at 500 ng/mL) for protein precipitation. After centrifugation, supernatants were analyzed directly using LC-HRAMS as described below.

The mark [5] stands for this setting: 0.5% MC in DI water, group average.
The mark [6] stands for this setting: 0.5% MC in DI water, group average, read-out: Average plasma concentration.
The mark [7] stands for this setting: 0.5% NaCMC in DI water, group average.
The mark [8] stands for this setting: 0.5% NaCMC in DI water, group average, read-out: Average plasma concentration.

The structures appear in SMILES notation. Values after ≈ are worked out from the molar mass of the structure shown. Where two headings read alike, the source gives them in different places.

As a reminder, the solubility is the concentration that dissolves in the medium under given conditions. In the case of `CC(Cc1ccc(O)c(O)c1)C(C)Cc1ccc(O)c(O)c1` (stereo not shown) [NDGA, nordihydroguaiaretic acid], in data set [1], the solubility was about 8 µg/mL (≈ 26.5 µM). Further, in the data set with H1975, A427, A549 cells (10% mouse serum spiked with drug), the Concentration above which reduced cell proliferation was observed was over 10 µM. Also, the Cell number reduced in the data set with H1975, A427, A549 cells (maximum concentration tested, 10% mouse serum, all cell lines averaged) is 33%. Besides, the “Number of cells after culture in 10% serum from treated mice (in words)” value is listed as “not significant at the 0.05 level” with A549 cells and “decrease was statistically significant” with A427 cells. In data set [2] (male CD-1 mice, 300 mg/kg PO, 0.5% NaCMC in water), the “Adverse effects in the dosed animals” value is “No adverse effects were observed”. Further, the AUC in data set [2] (mouse plasma, 300 mg/kg PO NDGA, trapezoidal approximation, 5-240 min) amounted to 28.5 peak area ratio* min. In data set [3] (100 mg/kg PO, one mouse (#187) died ~5 min after 30 min sample, possibly stress), the “Observations and adverse reactions” value is given as “No other adverse effects were observed”. In addition, the concentration at 0.167 h in data set [3] (setting [5]) was 43.4 ng/mL; in data set [3] (setting [7]), 70.8 ng/mL. Also, the concentration at 0.5 h in data set [3] (setting [6]) is 44.2 ng/mL; in data set [3] (setting [8]), 49.6 ng/mL; in data set [3] (0.5% NaCMC in DI water, individual mice #183-187, read-out: Individual plasma concentration Conc.) it was 40.9 ng/mL. Besides, the concentration at 2 h in data set [3] (setting [5]) amounted to 3.08 ng/mL; in data set [3] (setting [7]) it was 1.83 ng/mL. Also, the concentration at 4 h in data set [3] (setting [6]) was 3.19 ng/mL; in data set [3] (setting [8]), 2.75 ng/mL; in data set [3] (0.5% NaCMC in DI water, individual mice #183-186, read-out: Individual plasma concentration Conc.), 3.24 ng/mL. Further, the figures for the “Stability of NDGA in whole blood” value in data set [4] (time 0 minutes) and in data set [4] (time 15 minutes) were 100 and 7.2, respectively. In data set [4] (up to 60 minutes), the “Putative metabolites detected upon incubation in whole blood in vitro” value is reported as “No putative metabolites were detected”. Further, in data set [4] (possibly impacted by poor recovery), the “Stability in whole blood sample (in words)” value is on record as “appears to be unstable”.
